Literature values in patent US20140284468A1, “Cancer patient selection for administration of therapeutic agents using mass spectral analysis of blood-based samples” (Biodesix, Inc., priority 2010, published 2014).

Tested on: NSCLC, SCCHN, and CRC patients
Settings: VeriStrat poor subgroup, monotherapy versus placebo

## C#Cc1cccc(Nc2ncnc3cc(OCCOC)c(OCCOC)cc23)c1 [erlotinib]
  treatment benefit: essentially equivalent to treatment with placebo
